Data reported in US9539257B2, “Method of treating cancer” (NOVARTIS AG, priority 2009, dated 2017).

Assays:
[1] = cancer patients receiving lapatinib; cited from earlier work
TNXB rs12153855 [2] = assay: ALT case-control genetic association, exploratory study; type: in vivo, human; settings: TNXB rs12153855 CC/CT
Text: (§1) Germline DNA was extracted from peripheral blood (QiAmp DNA Blood Kit, Qiagen, Valencia, Calif.). This study evaluated candidate gene and genome-wide screening, performed in parallel, to detect case-control association signals in the exploratory cohort. Class I and II HLA genes (seven genes to 4-digit and three genes to 2-digit resolution) were typed by Laboratory Corporation of America (Burlington, N.C.) and Histogenetics (Ossining, N.Y.), or at GSK using the LABType® SSO Typing Test (One Lambda, Canoga Park, Calif.). […] Whole genome screen genotyping on the Illumina Human 1M-Duo platform was also conducted (Expression Analysis, Durham, N.C.).
(§2) For the exploratory study, initial analysis of the GWAS was done using logistic regression, carried out in PLINK (Purcell S, et al. American Journal of Human Genetics 2007; 81, 559-575) using the genotypic test option when three genotype classes were observed, or the additive test option when only two genotype classes were observed. […] In addition to the genotype term, all models included baseline ALT xULN, treatment group (for the exploratory study), and a sufficient number of principal components to account for potential confounding by population structure. Principal components were obtained from EIGENSOFT (Patterson N. et al. PLoS Genetics 2006; 2: e190), using study subjects and HapMap founders.
(§3) Genetic markers selected for confirmatory were required to achieve pre-defined p-value thresholds in the exploratory analysis of p≦0.05 for HLA markers, p≦0.01 for candidate gene markers and p≦10-4 for whole genome screen SNPs. For markers confirmed at p≦0.01, measures of potential clinical utility were evaluated. An allele or genotype(s) was designated which conferred a higher risk of ALT elevation and this was compared to the non-risk allele(s)/genotype(s) and the odds ratio (OR), positive predictive value (PPV), and negative predictive value (NPV) calculated.

HLA-B*4403 = settings: matched case-control
Procedure: (§4) The two phenotypes that were evaluated were maximum on-treatment liver chemistry values for ALT and TBL with respect to the upper limit of normal. These phenotypes were evaluated separately in case-control and quantitative trait analyses and jointly in a combined case-control analysis. ALT and TBL cases were defined as maximum on-treatment elevations of ≧3×ULN and ≧1.5×ULN, respectively, and control subjects were defined as maximum on-treatment ALT or TBL of ≦1×ULN. Approximately 950 patients with an adequate, fully consented DNA sample had available clinical data for these phenotypes. After subject genotyping quality control was completed, a total of 947 patients remained for pharmacogenetic analyses on at least one genetic variant.

UGT1A1*28 = settings: exploratory
Procedure: The two phenotypes that were evaluated were maximum on-treatment liver chemistry values for ALT and TBL with respect to the upper limit of normal. These phenotypes were evaluated separately in case-control and quantitative trait analyses and jointly in a combined case-control analysis. ALT and TBL cases were defined as maximum on-treatment elevations of ≧3×ULN and ≧1.5×ULN, respectively, and control subjects were defined as maximum on-treatment ALT or TBL of ≦1×ULN.
2) As genetic understanding of drug-induced liver injury is limited, a comprehensive drug induced liver injury (DILI) panel, developed by GSI in consultation with external liver experts was also evaluated. This DILI panel is comprised of approximately 6500 single nucleotide polymorphisms (SNPs) in 270 gene regions derived from the postulated mechanisms involved in the pathophysiology of DILI. In both approaches, genetic variation in each gene region was investigated using tag SNPs selected from the International HapMap project and/or high density SNP coverage consisting of all functional SNPs with a previously recorded genotype to phenotype correlation. […] Evaluation of HLA genes focused on a subset of the total number of patients consisting of all ALT cases (N=47) and matched controls (N=47).

DQA1*0201/DQB1*0201g = assay: ALT case/non-case association with DQ2.2 serotype allele combinations, confirmatory study; type: in vivo, human
Procedure: as §3
HLA Class II peptides form heterodimer proteins where DQA1/DQB1 and DRA/DRB1 combinations create discrete antigen binding sites (Jones E Y, et al. Nature Reviews: Immunology 2006; 6; 271-282). HLA-DRA is functionally monomorphic and no further marker discrimination can be gained by evaluating specific allelic combinations. In contrast, both DQA1*0201 and DQB1*0202 are polymorphic.

TNXB rs12153855 [3] = assay: ALT case-control genetic association, confirmatory study (lapatinib plus letrozole arm); type: in vivo, human; settings: TNXB rs12153855 CC/CT
Text: as §1, §2, §3

[4] = DQA1*0201/DQB1*0201g carriage, cases vs non-cases, ALT > 3 xULN, Confirmatory study
[5] = DQA1*0201/DQB1*0201g, ALT > 3 xULN threshold, Confirmatory study

Procedure for HLA-DRB1*0701: as §4

CS(=O)(=O)CCNCc1ccc(-c2ccc3ncnc(Nc4ccc(OCc5cccc(F)c5)c(Cl)c4)c3c2)o1 [lapatinib, N-(3 chloro-4-{[(3-fluorophenyl)methyl]oxy}phenyl)-6-[5-({[2 (methylsulfonyl)ethyl]amino}methyl)-2-furanyl]-4-quinazolinamine bis(4 methylbenzenesulfonate)monohydrate]
combined ALT/TBL cases with at least one of the significant HLA alleles (HLA-DRB1*0701; exploratory, 4/13 combined cases, HLA-DRB1*0701 or HLA-B*4403): 31% | ALT cases with at least one copy of HLA-DRB1*0701 (HLA-DRB1*0701; matched case-control, 47 cases): 40% | ALT controls with at least one copy of HLA-DRB1*0701 (HLA-DRB1*0701; matched case-control, 47 controls): 13% | Grade 3 ALT elevation (Common Toxicity Criteria for Adverse Events, v4.0), patients affected [1]: 1.6% | Hy's Rule events, patients affected [1]: 0.2% | Carriage: cases (%) (TNXB rs12153855 [2]; ALT cases): (35%) | Carriage: cases (n/N) (TNXB rs12153855 [2]; ALT cases): 12/34 | Carriage: controls (%) (TNXB rs12153855 [2]; ALT controls): (17%) | Carriage: controls (n/N) (TNXB rs12153855 [2]; ALT controls): 47/281 | ALT cases carrying one copy of HLA-B*4403 (HLA-B*4403; 47 cases): Twenty three | ALT controls carrying one copy of HLA-B*4403 (HLA-B*4403; 47 controls): 6% | TBL cases with TA7/TA7 genotype (UGT1A1*28; TBL cases (N=60)): Thirty five | TBL cases with at least one TA7 allele (UGT1A1*28; TBL cases (N=60)): 82% | TBL controls with TA7/TA7 genotype (UGT1A1*28; controls (N=396)): 5% | TBL controls with at least one TA7 allele (UGT1A1*28; controls (N=396)): 48% | HLA Carrier: Cases (number) (DQA1*0201/DQB1*0201g; DQA1*0201/DQB1*0201g (DQ2.2 serotype), ALT Cases > 3 xULN, Confirmatory study): 17 | NPV (CI) (DQA1*0201/DQB1*0201g; [4]): 0.976 (0.951, 0.990) | OR (CI) (DQA1*0201/DQB1*0201g; [4]): 10.2 (3.8, 30.0) | PPV (CI) (DQA1*0201/DQB1*0201g; [4]): 0.20 (0.12, 0.30) | HLA Carrier: Non Cases (number) (DQA1*0201/DQB1*0201g; [5]): 67 | HLA Non-Carrier: Non Cases (number) (DQA1*0201/DQB1*0201g; [5]): 281 | HLA Non-Carrier: Cases (number) (DQA1*0201/DQB1*0201g; DQA1*0201/DQB1*0201g, ALT Cases > 3 xULN, Confirmatory study): 7 | DQA1*0201/DQB1*0201g allele combinations in ALT cases (DQA1*0201/DQB1*0201g; confirmatory study (17/24)): 71% | DQA1*0201/DQB1*0201g allele combinations in non-cases (DQA1*0201/DQB1*0201g; confirmatory study (67/348)): 19% | Carriage: cases (%) (TNXB rs12153855 [3]; ALT cases): (63%) | Carriage: cases (n/N) (TNXB rs12153855 [3]; ALT cases): 15/24 | Carriage: controls (%) (TNXB rs12153855 [3]; ALT controls): (19%) | Carriage: controls (n/N) (TNXB rs12153855 [3]; ALT controls): 29/155
